Reference: PubChem BioAssay AID248 (DTP/NCI, 2004)
Toxic doses and inconclusive results are not listed.

Tested on: L1210 leukemia ip in BDF1 mice, survival T/C
Assay: NCI In Vivo Anticancer Drug Screen. Data for tumor model L1210 Leukemia (intraperitoneal) in B6D2F1 (BDF1) mice
Settings: endpoint: mean survival time, higher = longer survival
Summary of the method: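 Mice bearing the transplanted tumor received compound or vehicle. Survival of the treated group was divided by that of the vehicle-treated control group to give the ratio.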

[1] = dose: 100.0 mg/kg/injection, schedule: Q04DX002 (ip), vehicle: Klucel (hydroxypropylcellulose) (HPC)
[2] = dose: 200.0 mg/kg/injection, schedule: Q04DX002 (ip), vehicle: Klucel (hydroxypropylcellulose) (HPC)
[3] = dose: 400.0 mg/kg/injection, schedule: Q04DX002 (ip), vehicle: Klucel (hydroxypropylcellulose) (HPC)
[4] = dose: 100.0 mg/kg/injection, schedule: Q01DX001 (ip), vehicle: saline
[5] = dose: 100.0 mg/kg/injection, schedule: Q04DX003 (ip), vehicle: saline
[6] = dose: 200.0 mg/kg/injection, schedule: Q01DX001 (ip), vehicle: saline
[7] = dose: 400.0 mg/kg/injection, schedule: Q01DX001 (ip), vehicle: saline
[8] = dose: 100.0 mg/kg/injection, schedule: Q01DX009 (ip), vehicle: Klucel (hydroxypropylcellulose) (HPC)
[9] = dose: 200.0 mg/kg/injection, schedule: Q01DX009 (ip), vehicle: Klucel (hydroxypropylcellulose) (HPC)
[10] = dose: 400.0 mg/kg/injection, schedule: Q01DX009 (ip), vehicle: Klucel (hydroxypropylcellulose) (HPC)
[11] = dose: 50.0 mg/kg/injection, schedule: Q01DX009 (ip), vehicle: saline with Tween-80
[12] = dose: 100.0 mg/kg/injection, schedule: Q01DX009 (ip), vehicle: saline with Tween-80
[13] = dose: 100.0 mg/kg/injection, schedule: Q04DX003 (ip), vehicle: Klucel (hydroxypropylcellulose) (HPC)
[14] = dose: 200.0 mg/kg/injection, schedule: Q04DX003 (ip), vehicle: Klucel (hydroxypropylcellulose) (HPC)
[15] = dose: 400.0 mg/kg/injection, schedule: Q04DX003 (ip), vehicle: Klucel (hydroxypropylcellulose) (HPC)
[16] = dose: 100.0 mg/kg/injection, schedule: Q01DX001 (ip), vehicle: Klucel (hydroxypropylcellulose) (HPC)
[17] = dose: 200.0 mg/kg/injection, schedule: Q01DX001 (ip), vehicle: Klucel (hydroxypropylcellulose) (HPC)

SMILES: COC1CCC(/C=C(\C#N)C2CCC(OC)CC2)CC1 (stereo not drawn)
- T/C [1]: 96 % of control
- T/C [2]: 92 % of control
- T/C [3]: 96 % of control

SMILES: O=S(=O)(c1ccccc1)C1CC1c1ccc(Cl)cc1 (stereo not drawn)
- T/C [4]: 97 % of control
- T/C [5]: 104 % of control
- T/C [6]: 92 % of control
- T/C (dose: 200.0 mg/kg/injection, schedule: Q04DX003 (ip), vehicle: saline): 96 % of control
- T/C [7]: 98 % of control
- T/C (dose: 400.0 mg/kg/injection, schedule: Q04DX003 (ip), vehicle: saline): 96 % of control

SMILES: ClC1(Cl)C2(c3ccccc3)OC(c3ccccc3)(c3ccccc32)C1(Cl)Cl
- T/C [1]: 97 % of control
- T/C [2]: 97 % of control
- T/C [3]: 102 % of control

SMILES: COc1ccc(CCNC2C3CC4CC(C3)CC2C4)cc1OC (stereo not drawn)
- T/C [5]: 94 % of control

SMILES: O=C(Nc1ccccc1)Nc1cccc2ccccc12
- T/C (dose: 100.0 mg/kg/injection, schedule: Q04DX002 (ip), vehicle: gum acacia): 102 % of control
- T/C (dose: 200.0 mg/kg/injection, schedule: Q04DX002 (ip), vehicle: gum acacia): 94 % of control
- T/C (dose: 400.0 mg/kg/injection, schedule: Q04DX002 (ip), vehicle: gum acacia): 94 % of control

SMILES: CSc1ccc(C2NC(=O)NC2=O)cc1 (stereo not drawn)
- T/C (dose: 50.0 mg/kg/injection, schedule: Q01DX001 (ip), vehicle: saline): 102 % of control
- T/C [4]: 100 % of control
- T/C [6]: 96 % of control
- T/C [7]: 102 % of control

SMILES: CCP(C)(=S)CC
- T/C [8]: 101 % of control
- T/C [9]: 100 % of control
- T/C [10]: 100 % of control

SMILES: CCCOc1ccc([N+](=O)[O-])cc1N
- T/C (dose: 100.0 mg/kg/injection, schedule: Q01DX001 (ip), vehicle: carboxymethylcellulose (CMC)): 96 % of control
- T/C (dose: 200.0 mg/kg/injection, schedule: Q01DX001 (ip), vehicle: carboxymethylcellulose (CMC)): 100 % of control
- T/C (dose: 400.0 mg/kg/injection, schedule: Q01DX001 (ip), vehicle: carboxymethylcellulose (CMC)): 94 % of control

SMILES: Cc1sc2ccccc2[n+]1CCCCS(=O)(=O)O
- T/C [4]: 92 % of control
- T/C [6]: 97 % of control
- T/C [7]: 97 % of control

SMILES: O=[N+]([O-])c1ccc(O)c(/C=N/N2CCN(/N=C/c3cc([N+](=O)[O-])ccc3O)CC2)c1
- T/C [4]: 91 % of control
- T/C [6]: 97 % of control
- T/C [7]: 97 % of control

SMILES: CC(C)(CO)CN1CCCC1
- T/C [4]: 103 % of control
- T/C [6]: 100 % of control

SMILES: COc1ccc(N(N=O)C(C)C)cc1
- T/C (dose: 12.5 mg/kg/injection, schedule: Q01DX009 (ip), vehicle: saline with Tween-80): 87 % of control
- T/C (dose: 25.0 mg/kg/injection, schedule: Q01DX009 (ip), vehicle: saline with Tween-80): 94 % of control
- T/C [11]: 87 % of control
- T/C [12]: 89 % of control
- T/C (dose: 200.0 mg/kg/injection, schedule: Q01DX009 (ip), vehicle: saline with Tween-80): 92 % of control

SMILES: CC12CCC3c4ccc(Oc5ccc(N)cc5)cc4CCC3C1CCC2=O (stereo not drawn)
- T/C (dose: 100.0 mg/kg/injection, schedule: Q01DX001 (sc), vehicle: steriod suspending solution): 101 % of control
- T/C (dose: 200.0 mg/kg/injection, schedule: Q01DX001 (sc), vehicle: steriod suspending solution): 95 % of control
- T/C (dose: 400.0 mg/kg/injection, schedule: Q01DX001 (sc), vehicle: steriod suspending solution): 101 % of control

SMILES: CCN(CC)Cc1ccccc1COC(=O)c1ccc(Cl)cc1
- T/C [1]: 96 % of control
- T/C [2]: 101 % of control
- T/C [3]: 88 % of control

SMILES: Nc1ccccc1C(=O)N/N=C/c1cccc(O)c1
- T/C [1]: 98 % of control
- T/C [2]: 103 % of control
- T/C [3]: 113 % of control

SMILES: CCC#CC(=O)OCCCC
- T/C (dose: 100.0 mg/kg/injection, schedule: Q04DX002 (ip), vehicle: saline): 93 % of control
- T/C (dose: 200.0 mg/kg/injection, schedule: Q04DX002 (ip), vehicle: saline): 104 % of control
- T/C (dose: 400.0 mg/kg/injection, schedule: Q04DX002 (ip), vehicle: saline): 96 % of control

SMILES: C/C=C/C(=O)NCC(=O)O
- T/C [4]: 90 % of control
- T/C [6]: 97 % of control
- T/C [7]: 103 % of control

SMILES: CNC(=O)Oc1cccc2c1OC(C)(C)C2
- T/C (dose: 1.56 mg/kg/injection, schedule: Q01DX001 (ip), vehicle: Klucel (hydroxypropylcellulose) (HPC)): 96 % of control
- T/C (dose: 3.13 mg/kg/injection, schedule: Q01DX001 (ip), vehicle: Klucel (hydroxypropylcellulose) (HPC)): 103 % of control

SMILES: O=[N+]([O-])c1ccc(/C=C/c2ncccn2)o1
- T/C [13]: 97 % of control
- T/C [14]: 103 % of control
- T/C [15]: 97 % of control

SMILES: COC(=O)c1[nH]cnc1/N=N\N(CCF)CCF
- T/C (dose: 1.5 mg/kg/injection, schedule: Q01DX009 (ip), vehicle: carboxymethylcellulose (CMC)): 120 % of control
- T/C (dose: 3.0 mg/kg/injection, schedule: Q01DX009 (ip), vehicle: carboxymethylcellulose (CMC)): 110 % of control
- T/C (dose: 4.5 mg/kg/injection, schedule: Q01DX001 (ip), vehicle: carboxymethylcellulose (CMC)): 102 % of control
- T/C (dose: 5.0 mg/kg/injection, schedule: Q01DX001 (ip), vehicle: carboxymethylcellulose (CMC)): 101 % of control
- T/C (dose: 9.0 mg/kg/injection, schedule: Q01DX001 (ip), vehicle: carboxymethylcellulose (CMC)): 112 % of control
- T/C (dose: 10.0 mg/kg/injection, schedule: Q01DX001 (ip), vehicle: carboxymethylcellulose (CMC)): 115 % of control
- T/C (dose: 12.0 mg/kg/injection, schedule: Q01DX009 (ip), vehicle: carboxymethylcellulose (CMC)): 91 % of control
- T/C (dose: 14.4 mg/kg/injection, schedule: Q01DX009 (ip), vehicle: carboxymethylcellulose (CMC)): 169 % of control
- T/C (dose: 18.0 mg/kg/injection, schedule: Q01DX009 (ip), vehicle: carboxymethylcellulose (CMC)): 95 % of control
- T/C (dose: 40.0 mg/kg/injection, schedule: Q01DX009 (ip), vehicle: carboxymethylcellulose (CMC)): 97 % of control
- T/C (dose: 53.0 mg/kg/injection, schedule: Q01DX001 (ip), vehicle: carboxymethylcellulose (CMC)): 154 % of control
- T/C (dose: 80.0 mg/kg/injection, schedule: Q01DX001 (ip), vehicle: carboxymethylcellulose (CMC)): 171 % of control

SMILES: N#Cc1c(F)c(F)c(Oc2c(F)c(F)c(Oc3c(F)c(F)c(C#N)c(F)c3F)c(F)c2F)c(F)c1F
- T/C [16]: 97 % of control
- T/C [13]: 94 % of control
- T/C [17]: 97 % of control
- T/C [14]: 94 % of control
- T/C (dose: 400.0 mg/kg/injection, schedule: Q01DX001 (ip), vehicle: Klucel (hydroxypropylcellulose) (HPC)): 89 % of control
- T/C [15]: 92 % of control

SMILES: NNC(=O)C1CCN1C(c1ccccc1)c1ccccc1 (stereo not drawn)
- T/C (dose: 25.0 mg/kg/injection, schedule: Q01DX001 (ip), vehicle: saline with Tween-80): 101 % of control
- T/C (dose: 50.0 mg/kg/injection, schedule: Q01DX001 (ip), vehicle: saline with Tween-80): 101 % of control
- T/C (dose: 100.0 mg/kg/injection, schedule: Q01DX001 (ip), vehicle: saline with Tween-80): 97 % of control

SMILES: CC1CC(NCCO)CC(C)(C)C1 (stereo not drawn)
- T/C (dose: 75.0 mg/kg/injection, schedule: Q01DX001 (ip), vehicle: acid diluted with saline): 122 % of control
- T/C (dose: 150.0 mg/kg/injection, schedule: Q01DX001 (ip), vehicle: acid diluted with saline): 100 % of control

SMILES: CCCOC(=O)Cc1cccc2ccccc12
- T/C (dose: 222.0 mg/kg/injection, schedule: Q01DX Z (ip), vehicle: saline): 90 % of control
- T/C (dose: 333.0 mg/kg/injection, schedule: Q01DX Z (ip), vehicle: saline): 96 % of control
- T/C (dose: 500.0 mg/kg/injection, schedule: Q01DX Z (ip), vehicle: saline): 96 % of control

SMILES: Cc1ncnc2c1CCC2
- T/C [11]: 96 % of control
- T/C [12]: 105 % of control
- T/C (dose: 100.0 mg/kg/injection, schedule: Q04DX003 (ip), vehicle: saline with Tween-80): 97 % of control
- T/C (dose: 200.0 mg/kg/injection, schedule: Q04DX003 (ip), vehicle: saline with Tween-80): 97 % of control

SMILES: Cc1cccc(C)c1N1C(=O)CC(Sc2ccccc2N)C1=O (stereo not drawn)
- T/C [8]: 92 % of control
- T/C [13]: 98 % of control
- T/C [9]: 88 % of control
- T/C [14]: 95 % of control
- T/C [10]: 88 % of control
- T/C [15]: 93 % of control

SMILES: COc1ccc2c(c1)CCC1C2CCC2C(O)CCCC21 (stereo not drawn)
- T/C (dose: 50.0 mg/kg/injection, schedule: Q01DX001 (ip), vehicle: Klucel (hydroxypropylcellulose) (HPC)): 95 % of control
- T/C [16]: 93 % of control
- T/C [17]: 87 % of control
